Test results taken from patent US20250152583A1, “AMILORIDE FOR USE IN THE TOPICAL TREATMENT OF SOMATOSENSORY IMPAIRMENTS” (ASSISTANCE PUBLIQUE - HOPITAUX DE PARIS, priority 2022, published 2025).

How the values were obtained:
Assay type in all cases: in vivo, human
[1] = tested on: patient with hypoesthesia with lost sensations in feet and fingertips; test: Case report: amiloride cream, hypoesthesia after oxaliplatine
Description: A patient suffering from colon cancer was treated for 4 months with oxaliplatine in December 2019. They developed hypoesthesia with lost sensations in feet and in the fingertips of both hands and complained of having the impression of a permanently “rolled sock” under the feet. They were treated with a cream of amiloride 10% applied twice a day during one month and they noticed an improvement in the feeling of the right foot “rolled sock” (4/10 vs 8/10 before this treatment), a little less on the left foot (6/10 vs 8/10).

[2] = tested on: patient with peripheral sensory neuropathy of feet and hands with hypoesthesia and proprioceptive disorders; test: Case report: amiloride cream on hypoesthetic areas, neuropathy induced by Ado-trastuzumab emtansine (T-DM1); details: cream of amiloride 5%, applied locally to hypoesthetic areas twice a day
Description: A patient received Ado-trastuzumab emtansine (T-DM1), the first HER2-targeted antibody-drug conjugate to get the approval of the Food and Drug Administration (FDA), for the treatment of their metastatic HER2-positive breast cancer.
For more than 2 years, they had repeated falls due to loss of feeling in their feet, cuts on their hands, unnoticed burns, “splinters in the skin following their gardening activities” with infection in the aftermath because they had not realized it.
They complained of often dropping objects held in their hands and of no longer being able to sew due to the impossibility of holding a fine needle.
They were treated with a cream of amiloride 5% applied locally to the hypoesthetic areas twice a day.

[3] = tested on: patients with somatosensory impairments; test: Summary statement: patients treated with a topical composition of amiloride
[4] = tested on: patient with hypoesthesia and proprioceptive disorders; test: Case report: amiloride cream on hypoesthetic areas, hypoesthesia and proprioceptive disorders after bortezomib; details: cream of amiloride 10%, twice a day, after 1 month of use
Description: A patient suffered from hypoesthesia and proprioceptive disorders with difficulty gripping the foot on the ground, impression of walking on cotton and complained of the impression of having a permanently rolled sock under the feet in addition to a sensation of having edematous toes since they received a treatment with bortezomib in 2016 for treating their myeloma. They were treated with a cream of amiloride 10% applied locally to the hypoesthetic areas twice a day.

NC(N)=NC(=O)c1nc(Cl)c(N)nc1N [amiloride, 3,5-diamino-6-chloro-N-(diaminomethylidene) pyrazine-2-carboxamide]
sensation "rolled sock" ([1]; amiloride concentration in the cream increased to 15%): further decrease the sensation “rolled sock” even on the left foot
sensitivity in the fingertips of both hands ([1]; cream of amiloride 10%, twice a day during one month): regained the sensitivity in the fingertips of both hands
feeling of "rolled sock", left foot ([1]; cream of amiloride 10%, twice a day during one month, 8/10 before treatment): 6/10
feeling of "rolled sock", right foot ([1]; cream of amiloride 10%, twice a day during one month, 8/10 before treatment, patient): 4/10
sensation of hands and feet [2]: regained the sensation of their hands and feet
sensations in insensitive body areas, proprioception and mechanical allodynia [3]: able to recover sensations in insensitive body areas and a correct proprioception and noted the disappearance of mechanical allodynia
impression of having a permanently rolled sock under the feet [4]: disappeared
impression of walking on cotton [4]: disappeared
sensation of edema of the toes [4]: has disappeared
feeling of hot and cold on the soles of the feet ([4]; patient): feels better hot and cold on the soles of their feet
